This note sets out measurements from patent publication US20220017471A1, “FUNCTIONALITY INDEPENDENT LABELING OF ORGANIC COMPOUNDS” (Shanghai Tech University, priority 2018, published 2022).

In test [1] the target is T1, heat shock 70 kDa protein (HSP70) (Homo sapiens, UniProt P0DMV8).
T1 construct: purchased Sino Biological 11660-H07H
Briefly: nDEL affinity selection against HSP70 (enrichment fold by deep sequencing). The format is binding. Conditions: ratio of normalized sequencing counts in presence and absence of target protein; DNA-encoded compound. Here is the method:
(§1) The panning procedure for these two soluble protein were the same. 5 μg of target protein was mixed with Ni-charged MagBeads (GenScript, Cat. #L00295), 5 nM DEL library and 10 μg/mL Salmon sperm DNA. The final volume to adjusted to 100 μL. The mixture was rotated at room temperature for 1.5 h. After washing 5 times by phosphate-buffered saline supplemented 0.05% Tween-20 (PBST), the target protein binding chemical-DNA conjugations were eluted by heating at 95° C. for 10 min in 50 μL elution buffer (20 mM Tris, pH 7.4, 100 mM NaCl). The eluted DEL compounds were amplified by PCR using Takara PrimerSTAR Max DNA Polymerase (Takara, Cat. #R045A). Then the excess primers was removed by Hieff NGS™ smarter DNA clean beads (Yeasen, Cat. #12600E503) and evaluated on 4% DNA agarose gel. The amplified products was subjected for high-throughput sequencing using Illumina HiSeq X10 Analyzer.
The combinatorial chemical library was constructed by three building block sub libraries, containing 6, 46 and 46 chemical building blocks respectively for the first, second and third building block libraries, respectively. Each building block was encoded by a 10-base pair (bp) DNA sequence. The natural products were encoded by a 30-bp DNA sequence, same length as the combinatorial chemical library DNA codes. […] After sequencing, the Illumina adaptors around the DNA coding sequences were trimmed by CLC genomics workbench version 12 (Qiagen). The left DNA coding sequences were 30 bp in length corresponding to the three DNA sequences of building blocks in 3 rounds of “split-pool” iterations. For each sample, the DNA coding sequences were mapped to the reference DNA encoding compound library. No mismatch was allowed in the mapping. The coding sequences were counted for all the compounds across different samples. The total read-counts of all the compounds in a given sample were calculated. The read-counts for each individual compound were divided by the total counts, multiplied with a constant of 100000.
(§2) NormalizedCountCompoundM,SampleA=CountCompoundM,SampleA/(TotalCountSampleA)*100000
The fold changes of each compound in the after-selection library comparing to the reference library were calculated.
(§3) FoldChangeCompoundM=NormalizedCountCompoundM,SampleA/NormalizedCountCompoundM,Ref
(§4) The hit criteria of nDEL screening take into account of both the normalized enrichment fold values (y-axis) and deep sequencing read counts (x-axis). Compounds with read counts less than 10 are considered unreliable, thus they are eliminated immediately from DEL before on-target screening. For each DEL library, a baseline enrichment fold is recorded in the absence of target protein, and a normalized enrichment fold value can be calculated for each DEL compound in the library. The cutoff for hits identification is based on a simplified statistical analysis of a highly diverse population of data, which is the sum of average value of enrichment-folds of the whole library (μ) plus 3 times of the standard deviation (σ).
Two target proteins with different cellular locations and biophysical properties were used in nDEL screens. […] The known functional binders for these targets were included in nDEL as internal positive controls, e.g., oridonin for HSP70 and derivatives of olaparib (F001, F002, F003 and F006) for PARP-1. To account for the non-uniform distribution of DNA barcodes in nDEL, a blank screen of nDEL in the absence of target proteins but presence of immobilization matrix beads was carried out first and followed by deep-sequencing to establish the baseline distribution of barcodes in the library. All screening data were analyzed using the method described by Decurtins et al., Nat Protoc. […] The corresponding DNA sequence of each nDEL compound were tallied based on its sequencing counts. The enrichment fold is calculated as the ratio of normalized sequencing counts in the presence and absence of target protein.

Test [2] has as its target T2, poly [ADP-ribose] polymerase 1 (PARP1) (Homo sapiens, UniProt P09874).
T2 construct: purchased Sino Biological 11040-H08B
Briefly: nDEL affinity selection against PARP-1 (enrichment fold by deep sequencing). The format is binding. Conditions: ratio of normalized sequencing counts in presence and absence of target protein; DNA-encoded compound. The method, then: as §1, with “The his-tag fused recombinant human PARP-1 (Sino Biological, Cat. #11040-H08B) and human-HSP70 (Sino Biological, Cat. #11660-H07H) were obtained from commercial source. The panning” for “The panning”
The combinatorial chemical library was constructed by three building block sub libraries, containing 6, 46 and 46 chemical building blocks respectively for the first, second and third building block libraries, respectively. Each building block was encoded by a 10-base pair (bp) DNA sequence. The natural products were encoded by a 30-bp DNA sequence, same length as the combinatorial chemical library DNA codes. All the possible combinations (combinatorial chemical compounds) between these three sub libraries were generated by an inhouse java program, which generated a reference DNA encoding library contains 12696 DNA encoding sequences. After sequencing, the Illumina adaptors around the DNA coding sequences were trimmed by CLC genomics workbench version 12 (Qiagen). The left DNA coding sequences were 30 bp in length corresponding to the three DNA sequences of building blocks in 3 rounds of “split-pool” iterations. For each sample, the DNA coding sequences were mapped to the reference DNA encoding compound library. No mismatch was allowed in the mapping. The coding sequences were counted for all the compounds across different samples. The total read-counts of all the compounds in a given sample were calculated. The read-counts for each individual compound were divided by the total counts, multiplied with a constant of 100000.
as §2
The fold changes of each compound in the after-selection library comparing to the reference library were calculated. For example, if SampleA and Reference library were compared, for the fold change of CompoundM was calculated as:
as §3, §4
Two target proteins with different cellular locations and biophysical properties were used in nDEL screens. […] The known functional binders for these targets were included in nDEL as internal positive controls, e.g., oridonin for HSP70 and derivatives of olaparib (F001, F002, F003 and F006) for PARP-1.

Turning to `CC1=CC(=O)c2c(O)cccc2C1=O` [Plumbagin], the “Enrichment Fold, HSP70 binder selection” value in test [1] came to 4.4. In addition, the “Fold Change, enrichment folds for PARP-1 binder selection” value in test [2] turned out to be 2.97.
Turning to `COc1cc2ccc(=O)oc2cc1O` [Scopoletin], the “Enrichment Fold, HSP70 binder selection” value in test [1] is 6.0. In test [2], the “Fold Change, enrichment folds for PARP-1 binder selection” value came out at 2.82.
As to `CNCC(O)c1ccc(O)cc1` (centres unmarked) [Synephrine], in test [1], the “Enrichment Fold, HSP70 binder selection” value is on record as 3.2. Further, the “Fold Change, enrichment folds for PARP-1 binder selection” value in test [2] was found to be 2.17.
The like results for `Cn1cnc2c1c(=O)[nH]c(=O)n2C` [Theobromine, reference compound] were, in that order, 4.3 and 2.42.
